US6309872A, “Polypeptides having glucoamylase activity and nucleic acids encoding same” (Novozymes Biotech, Inc, priority 2000, dated 2001)

Columns and labels:
[1] = biological target: Aspergillus awamori glucoamylase (Aspergillus awamori, UniProt P69327); details: Sierks and Svensson, 1993, cited from earlier work
[2] = biological target: T1, Thielavia terrestris ATCC 20627 glucoamylase, wild type, recombinant (expressed in Aspergillus oryzae), SEQ ID NO:2 (Thermothielavioides terrestris, UniProt G2QUZ8); test: Catalytic constants of recombinant Thielavia terrestris glucoamylase, maltotriose hydrolysis (glucose oxidase assay); type: biochemical
T1 construct: N-terminus identical to native enzyme
T1 sequence (G2QUZ8 20-638): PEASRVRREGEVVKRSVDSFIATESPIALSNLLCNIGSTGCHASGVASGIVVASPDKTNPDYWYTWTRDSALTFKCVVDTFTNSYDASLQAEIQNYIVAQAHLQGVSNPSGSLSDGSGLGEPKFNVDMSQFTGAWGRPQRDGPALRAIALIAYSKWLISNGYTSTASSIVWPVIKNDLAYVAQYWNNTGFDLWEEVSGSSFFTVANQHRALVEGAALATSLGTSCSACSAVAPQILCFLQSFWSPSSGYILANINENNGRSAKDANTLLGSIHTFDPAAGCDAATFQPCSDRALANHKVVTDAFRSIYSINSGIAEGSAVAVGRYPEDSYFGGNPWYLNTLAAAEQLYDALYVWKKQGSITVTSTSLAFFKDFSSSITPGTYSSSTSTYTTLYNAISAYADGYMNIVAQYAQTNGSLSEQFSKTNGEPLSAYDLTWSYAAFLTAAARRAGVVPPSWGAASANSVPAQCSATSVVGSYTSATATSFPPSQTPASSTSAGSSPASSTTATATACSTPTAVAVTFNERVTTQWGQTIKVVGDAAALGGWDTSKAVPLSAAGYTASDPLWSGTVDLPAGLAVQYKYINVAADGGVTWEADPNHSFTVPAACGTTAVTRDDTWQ
Method: The glucose-releasing activity of glucoamylase (on maltooligosaccharide) was measured using a glucose oxidase assay kit (Sigma Chemical Co., St. Louis, Mo.) according to the manufacturer's instructions. […] To obtain the correct glucoamylase activity, glucoamylase samples were subjected to ultrafiltration and the resulting retentate (glucoamylase enriched) and filtrate (containing no glucoamylase) were assayed by the glucose oxidase kit. The background substrate oxidation was then subtracted from the data obtained for the glucoamylase samples. Another glucoamylase activity assay comprised of glucoamylase hydrolysis on maltose and glucose detection by a Glucose GOD-Perid kit (Boehringer Mannheim, Indianapolis, Ind.) according to the manufacturer's instructions. In this assay, 900 µl of 50 mM sodium acetate, pH 4.3, containing 1% maltose, pre-incubated for 5 minutes at 37° C., was mixed with 20 μl of glucoamylase solution in 50 mM sodium acetate pH 4.3. After a 10 minute incubation, 80 μl of 1 M NaOH was added to inactivate glucoamylase and the mixture was chilled on ice to prevent the non-enzymatic, basic hydrolysis of maltose. A 20 μl volume of the solution was then mixed with 200 μl of GOD-Perid solution. After a 30 minute incubation at room temperature, the absorbance at 650 nm was measured. The Prism program (from GraphPad, San Diego, Calif.) was used to calculate Km and Vmax by non-linear regression. The parameter kcat (mole glucose produced per mole glucoamylase per min) was calculated by kcat ={(Vmax +1.01)/0.30}/[enzyme], where the units were 0.001 Abs /minute for Vmax and μM for [enzyme]. The 124 mM^-1 cm^-1 value, calculated from the amount of tyrosine, phenylalanine, and cysteine as deduced from the DNA sequence, was used for the extinction coefficient of Thielavia terrestris glucoamylase at 280 nm.
Then 50 μl of Sigma's GO glucose oxidase assay reagent and 25 μl of H2 O were added and the absorption change was monitored at 490 nm.
The temperature-activity profile was measured in quadruplicate at 4, 22, 30, 37, 50, 60, 70, and 80° C. […] After 30 minutes, 5 μl Thielavia terrestris glucoamylase stock (0.11 mg/ml) was added and the solution was kept at the same temperature. After 20 minutes, the solutions were chilled (in ice-water) and briefly centrifuged (in 0.7-ml microcentrifuge tubes). Then 25 μl of these solutions were subjected to the glucoamylase assay by mixing with 50 μl of glucose oxidase reagent and 25 μl of H2 O as described above.

[3] = test system: Aspergillus spp K-27 glucoamylase; details: Abe et al., 1990, cited from earlier work
[4] = test system: Trichoderma reesei glucoamylase; details: Fagerstrom and Kalkkinen, 1995, cited from earlier work

Chain of Aspergillus awamori glucoamylase (P69327 25-640): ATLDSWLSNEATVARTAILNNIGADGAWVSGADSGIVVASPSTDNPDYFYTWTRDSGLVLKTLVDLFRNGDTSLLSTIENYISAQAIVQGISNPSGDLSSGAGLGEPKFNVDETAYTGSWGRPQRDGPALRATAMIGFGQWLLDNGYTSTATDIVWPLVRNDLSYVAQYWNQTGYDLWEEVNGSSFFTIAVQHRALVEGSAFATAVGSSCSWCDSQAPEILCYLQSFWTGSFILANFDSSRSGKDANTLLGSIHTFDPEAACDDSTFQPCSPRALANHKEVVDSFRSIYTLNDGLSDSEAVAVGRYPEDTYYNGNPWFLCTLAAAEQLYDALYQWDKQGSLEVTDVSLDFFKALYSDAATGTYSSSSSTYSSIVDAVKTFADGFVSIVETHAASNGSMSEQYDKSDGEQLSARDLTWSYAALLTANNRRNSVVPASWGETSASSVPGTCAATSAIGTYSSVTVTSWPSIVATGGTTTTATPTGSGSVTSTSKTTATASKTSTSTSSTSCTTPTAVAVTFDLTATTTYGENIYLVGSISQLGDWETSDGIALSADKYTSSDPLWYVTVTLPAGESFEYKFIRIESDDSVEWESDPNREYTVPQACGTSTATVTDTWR

In the case of OC[C@H]1O[C@H](O[C@H]2[C@H](O)[C@@H](O)[C@@H](O[C@H]3[C@H](O)[C@@H](O)C(O)O[C@@H]3CO)O[C@@H]2CO)[C@H](O)[C@@H](O)[C@@H]1O (stereo partly shown) [maltotriose], the kcat ([1]; maltotriose) is listed as 61.67 s⁻¹, the Km ([1]; read-out: Km for maltotriose) is listed as 730 µM and the Km ([2]; at pH 4 from 4° C. to 80° C.) is listed as < 1000 µM. The kcat ([2]; at pH 4 from 40° C. to 70° C.) was > 10^5 /min, the kcat ([2]; from pH 3 to 7 at 20° C.) was > 10^5 /min and the Km ([2]; from pH 3 to 11 at 20° C.) was < 1000 µM. The kcat ([3]; maltotriose) was 65 s⁻¹, the Km ([3]; read-out: Km for maltotriose) was 450 µM and the kcat ([4]; maltotriose) was 20 s⁻¹. The Km ([4]; read-out: Km for maltotriose) was 500 µM.
